We go through one substance from patent US20090263410A1, “USE OF TGF-B1 INHIBITOR PEPTIDES IN THE PREPARATION OF AN IMMUNE RESPONSE MODULATING AGENT” (Proyecto De Biomedicina Cima, S.L., priority 2005, published 2009).

“Also recorded” adds a separate entry of the source.

This test has as its system CT26 cells. The experiment in a line: Tumour growth of subcutaneous CT26 in AH1-immunized mice treated with peptides. The class given is in vivo, balb-c mice. On the procedure: GROUPS: 4 groups of 7 female balb-c mice, of 6 weeks old/group.
AH1+FIA s.c.+p144 (50 μg i.p./dose/mouse) AH1+FIA s.c.+p17(1-11) (50 μg i.p./dose/mouse) DESIGN: AH1+FIA: […]; Peptides: from day −6 on alternate days until day 10: Tumour model volume: Each 3 days from day 10 to day 41. Challenge on day 0 with CT26 (500000 cells/mouse s.c. in the flank).
REDUCTION IN THE MEAN TUMOUR VOLUME BY GROUPS TREATED WITH PEPTIDES: The effect of peptides p144 and p17(1-11)Am was studied in a tumour progression model. In this model, mice were immunized with 50 μg of AH1 10 days before the administration of 5×10^5 CT26 cells. In order to verify the effect of blocking the TGF-β1 on the protection against CT tumour cells, another two groups of mice were treated on alternate days by intraperitoneal route between days 6 and 10 (50 μg/mouse/48 h) with peptides p144 and p17(1-11)Am. […] This protection reached 100% of the animals in the case of p144 (FIG. 16).

For “p144: peptide inhibiting TGF-β1 whose amino acid sequence corresponds to SEQ ID NO: 1 (TSLDASIIWAMMQN; Synthetic Construct from human TGB-Beta1 type III receptor.Domain730-743)”, the tumour growth result (50 μg/mouse/48 h i.p. between days 6 and 10, s.c. CT26 on day 0, AH1 immunization 10 days before) was “protection against tumour growth; also recorded: delay tumour growth”. Besides, the “protection against tumour growth, share of animals” value (measured on day 42 after subcutaneous administration of tumour cells) is given as 100%.
